Target: human capsaicin receptor (VR1) (Homo sapiens, UniProt Q8NER1)
Test: Capsaicin receptor binding assay ([3H]RTX competition, VR1-transfected HEK293 membranes)

Sequence of human capsaicin receptor (VR1) (Q8NER1 whole entry): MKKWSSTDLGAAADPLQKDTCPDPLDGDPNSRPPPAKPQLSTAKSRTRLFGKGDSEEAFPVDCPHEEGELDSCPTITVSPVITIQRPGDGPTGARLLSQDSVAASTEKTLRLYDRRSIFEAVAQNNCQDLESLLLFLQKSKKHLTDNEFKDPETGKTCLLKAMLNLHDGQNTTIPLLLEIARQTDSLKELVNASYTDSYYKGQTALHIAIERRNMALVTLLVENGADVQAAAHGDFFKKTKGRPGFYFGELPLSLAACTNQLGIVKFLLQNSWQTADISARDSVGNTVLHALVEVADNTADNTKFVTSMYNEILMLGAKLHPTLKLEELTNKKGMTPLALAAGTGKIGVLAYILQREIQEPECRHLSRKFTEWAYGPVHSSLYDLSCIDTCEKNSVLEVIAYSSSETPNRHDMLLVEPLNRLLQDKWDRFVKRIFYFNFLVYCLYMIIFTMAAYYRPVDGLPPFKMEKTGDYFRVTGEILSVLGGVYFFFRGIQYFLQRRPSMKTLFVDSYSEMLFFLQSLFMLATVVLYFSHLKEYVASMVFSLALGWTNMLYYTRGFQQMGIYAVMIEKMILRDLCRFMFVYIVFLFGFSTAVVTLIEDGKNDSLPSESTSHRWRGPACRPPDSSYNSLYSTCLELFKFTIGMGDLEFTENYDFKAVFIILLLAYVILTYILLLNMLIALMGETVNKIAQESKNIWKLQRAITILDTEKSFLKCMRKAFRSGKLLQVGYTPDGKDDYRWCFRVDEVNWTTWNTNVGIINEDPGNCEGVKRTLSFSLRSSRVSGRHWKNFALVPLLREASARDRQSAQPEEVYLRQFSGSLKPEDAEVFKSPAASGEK

| Ki | Compound |
| --- | --- |
| < 1000 nM | COCCN(CCOC)Cc1nc(Nc2ccc(C(F)(F)F)cc2)c2ccc(-c3ncccc3C(F)(F)F)nc2n1 [Compound 749, [2-{[Bis-(2-methoxy-ethyl)-amino]-methyl}-7-(3-trifluoromethyl-pyridin-2-yl)-pyrido[2,3-d]pyrimidin-4-yl]-(4-trifluoromethyl-phenyl)-amine] |
| < 1000 nM | COCc1nc(Nc2ccc(C(C)=O)cc2)c2ncc(-c3ncccc3C(F)(F)F)cc2n1 [Compound 54, 1-{4-[2-Methoxymethyl-7-(3-trifluoromethyl-pyridin-2-yl)-pyrido[3,2-d]pyrimidin-4-ylamino]-phenyl}-ethanone] |
| < 1000 nM | OCc1nc(Nc2ccc(C(F)(F)F)nc2)c2ccc(-c3ncccc3C(F)(F)F)cc2n1 [Compound 22, [7-(3-Trifluoromethyl-pyridin-2-yl)-4-(6-trifluoromethyl-pyridin-3-ylamino)-quinazolin-2-yl]-methanol] |
| < 1000 nM | CC1CCN(Cc2nc(Nc3ccc(C(F)(F)F)nc3)c3ccc(-c4ncccc4C(F)(F)F)cc3n2)CC(C)(C)C1 (stereo not drawn) [Compound 363, (6-Trifluoromethyl-pyridin-3-yl)-[7-(3-trifluoromethyl-pyridin-2-yl)-2-(3,3,5-trimethyl-azepan-1-ylmethyl)-quinazolin-4-yl]-amine] |
| < 1000 nM | COCc1nc(Nc2ccc(C(C)C)cc2)c2ccc(-c3ncccc3C(F)(F)F)nc2n1 [Compound 108, (4-Isopropyl-phenyl)-[2-methoxymethyl-7-(3-trifluoromethyl-pyridin-2-yl)-pyrido[2,3-d]pyrimidin-4-yl]-amine] |
| < 1000 nM | CCOCc1nc(Nc2ccc(C(C)C)cc2)c2ccc(-c3ncccc3C)nc2n1 [Compound 139, [2-Ethoxymethyl-7-(3-methyl-pyridin-2-yl)-pyrido[2,3-d]pyrimidin-4-yl]-(4-isopropyl-phenyl)-amine] |
| < 1000 nM | CN(CCc1ccccc1)Cc1nc(Nc2ccc(C(F)(F)F)nc2)c2ccc(-c3ncccc3C(F)(F)F)cc2n1 [Compound 357, [2-[(Methyl-phenethyl-amino)-methyl]-7-(3-trifluoromethyl-pyridin-2-yl)-quinazolin-4-yl]-(6-trifluoromethyl-pyridin-3-yl)-amine] |
| < 1000 nM | C[C@@H]1CN(Cc2nc(Nc3ccc(C(C)(C)C)cc3)c3ccc(-c4ncccc4Cl)cc3n2)C[C@@H](C)O1 [Compound 621, (R,R)-(4-tert-Butyl-phenyl)-[7-(3-chloro-pyridin-2-yl)-2-(2,6-dimethyl-morpholin-4-ylmethyl)-quinazolin-4-yl]-amine] |
| < 1000 nM | CCc1ccc(Nc2nc(COC)nc3cc(-c4ncccc4C(F)(F)F)cnc23)cc1 [Compound 52, (4-Ethyl-phenyl)-[2-methoxymethyl-7-(3-trifluoromethyl-pyridin-2-yl)-pyrido[3,2-d]pyrimidin-4-yl]-amine] |
| < 1000 nM | COCc1nc(Nc2ccc(C(C)(C)COC)cc2)c2ccc(-c3ncccc3Cl)nc2n1 [Compound 61, [7-(3-Chloro-pyridin-2-yl)-2-methoxymethyl-pyrido[2,3-d]pyrimidin-4-yl]-[4-(2-methoxy-1,1-dimethyl-ethyl)-phenyl]-amine] |
| < 1000 nM | CCCCN(C)Cc1nc(Nc2ccc(C(F)(F)F)cc2)c2ccc(-c3ncccc3C(F)(F)F)cc2n1 [Compound 331] |
| < 1000 nM | CCOCc1nc(Nc2ccc(C(C)(C)C#N)cc2)c2ccc(-c3ncccc3C(F)(F)F)nc2n1 [Compound 225, 2-{4-[2-Ethoxymethyl-7-(3-trifluoromethyl-pyridin-2-yl)-pyrido[2,3-d]pyrimidin-4-ylamino]-phenyl}-2-methyl-propionitrile] |
| < 1000 nM | CC(C)(CO)NCc1nc(Nc2ccc(C(F)(F)F)cc2)c2ccc(-c3ncccc3C(F)(F)F)cc2n1 [Compound 704, 2-Methyl-2-{[4-(4-trifluoromethyl-phenylamino)-7-(3-trifluoromethyl-pyridin-2-yl)-quinazolin-2-ylmethyl]-amino}-propan-1-ol] |
| < 1000 nM | CCCCCCN(CCCCCC)CCc1nc(Nc2ccc(C(F)(F)F)cc2)c2ccc(-c3ncccc3C(F)(F)F)cc2n1 [Compound 429, [2-Dihexylaminoethyl-7-(3-trifluoromethyl-pyridin-2-yl)-quinazolin-4-yl]-(4-trifluoromethyl-phenyl)-amine] |
| < 1000 nM | Cc1cccnc1-c1ccc2c(Nc3ccc(C(C)(C)C)cc3)nc(C(=O)O)nc2n1 [Compound 207, 4-(4-tert-Butyl-phenylamino)-7-(3-methyl-pyridin-2-yl)-pyrido[2,3-d]pyrimidine-2-carboxylic acid] |
| < 1000 nM | CC(c1ccccc1)N(C)Cc1nc(Nc2ccc(C(F)(F)F)nc2)c2ccc(-c3ncccc3C(F)(F)F)cc2n1 (stereo not drawn) [Compound 348, [2-{[Methyl-(1-phenyl-ethyl)-amino]-methyl}-7-(3-trifluoromethyl-pyridin-2-yl)-quinazolin-4-yl]-(6-trifluoromethyl-pyridin-3-yl)-amine] |
| < 1000 nM | OCc1cc(Nc2ccc(C(F)(F)F)cc2)c2ccc(-c3ncccc3C(F)(F)F)nc2n1 [Compound 300, [4-(4-Trifluoromethyl-phenylamino)-7-(3-trifluoromethyl-pyridin-2-yl)-[1,8]naphthyridin-2-yl]-methanol] |
| < 1000 nM | C[C@@H]1CN(Cc2nc(Nc3ccc(C(C)(C)C)cc3)c3ncc(-c4ncccc4Cl)cc3n2)C[C@H](C)O1 [Compound 633, (4-tert-Butyl-phenyl)-[7-(3-chloro-pyridin-2-yl)-2-(2,6-dimethyl-morpholin-4-ylmethyl)-pyrido[3,2-d]pyrimidin-4-yl]-amine (cis)] |
| < 1000 nM | FC(F)(F)c1ccc(Nc2nc(CN3CCCC4CCCCC43)nc3cc(-c4ncccc4C(F)(F)F)ccc23)cn1 (stereo not drawn) [Compound 365, [2-(Octahydro-quinolin-1-ylmethyl)-7-(3-trifluoromethyl-pyridin-2-yl)-quinazolin-4-yl]-(6-trifluoromethyl-pyridin-3-yl)-amine] |
| < 1000 nM | OCC1CCN(CCCc2nc(Nc3ccc(C(F)(F)F)cc3)c3ccc(-c4ncccc4C(F)(F)F)cc3n2)CC1 [Compound 569, (1-{3-[4-(4-Trifluoromethyl-phenylamino)-7-(3-trifluoromethyl-pyridin-2-yl)-quinazolin-2-yl]-propyl}-piperidin-4-yl)-methanol] |

| Compound | Ki |
| --- | --- |
| Cc1cccnc1-c1ccc2c(Nc3ccc(C(C)(C)C)cc3)nc(COCC(C)C)nc2n1 [Compound 129, (4-tert-Butyl-phenyl)-[2-isobutoxymethyl-7-(3-methyl-pyridin-2-yl)-pyrido[2,3-d]pyrimidin-4-yl]-amine] | < 1000 nM |
| Cc1cc(Nc2nc(COCC(C)C)nc3nc(-c4ncccc4C(F)(F)F)ccc23)ccc1C(F)(F)F [Compound 166, [2-Isobutoxymethyl-7-(3-trifluoromethyl-pyridin-2-yl)-pyrido[2,3-d]pyrimidin-4-yl]-(3-methyl-4-trifluoromethyl-phenyl)-amine] | < 1000 nM |
| CC(C)COCc1nc(Nc2ccc(C#N)cc2)c2ccc(-c3ncccc3C(F)(F)F)nc2n1 [Compound 272, 4-[2-Isobutoxymethyl-7-(3-trifluoromethyl-pyridin-2-yl)-pyrido[2,3-d]pyrimidin-4-ylamino]-benzonitrile] | < 1000 nM |
| CC(C)COCc1nc(Nc2ccc(C(C)(C)C)nc2)c2ccc(-c3ncccc3C(F)(F)F)nc2n1 [Compound 192, (6-tert-Butyl-pyridin-3-yl)-[2-isobutoxymethyl-7-(3-trifluoromethyl-pyridin-2-yl)-pyrido[2,3-d]pyrimidin-4-yl]-amine] | < 1000 nM |

Source: US20040156869A1, “2-substituted quinazolin-4-ylamine analogues” (Neurogen Corporation, priority 2002, published 2004)
